Experimental findings from patent publication US8765107B2, “Process for straightening keratin fibres with a heating means and denaturing agents” (L'Oreal, priority 2006, dated 2014) are described below.

The assay is described as follows: hair relaxing with resorcinol under the conditions of M. Wong et al. The conditions noted are these: resorcinol at a concentration of 40% and at a pH of 7. The text has this: The use of resorcinol at a concentration of 40% and at a pH of 7 for relaxing the hair has been reported by M. Wong et al.: M. Wong, G. Vis-surel, and J. Epps J. Soc. Cosmet. Chem. (1994), 45, 347-352.

Turning to `Oc1cccc(O)c1` [resorcinol], the “relaxing of the hair” value was “do not relax it, but lead, at the very best, to slight uncurling”.
